Patent US12686877B2, “Method for producing olivetolic acid in an amoebozoa host species” (LEIBNIZ-INSTITUT FÜR NATURSTOFF-FORSCHUNG UND …, priority 2020, dated 2026)

Test system: D. discoideum pChR2 strain
Assay: Growth and metabolic activity monitoring (respiration activity, oxygen transfer rate)
Format: cell-based, Dictyostelium discoideum
Settings: pChR2 strain supplemented with 1 mM hexanoic acid
Protocol: Growth and metabolic activity monitoring. For determining the respiration activity, the D. discoideum pChR2, pChR5 and pChR7 strains were grown at an initial density of 1×10^6 cells/mL of HL5 medium supplemented with 1% [w/v] glucose and 20 μg/mL G418 in the presence or absence of 20 μg/mL doxycycline and 1 mM hexanoic acid as indicated. The respiration activity was measured by using the Kuhner TOM (transfer-rate online measurement) system equipped with oxygen partial pressure sensors and infrared sensors to calculate the oxygen transfer rate (OTR) and the carbon dioxide transfer rate (CTR). The cultures were grown in 250 mL TOM flasks for 144 h at 140 rpm and 22° C. without interruption to allow a constant OTR assessment. A filling volume of 52 mL was calculated in order to allow a maximum OTR of 8.5 mmol/L/h43, similar to culture conditions of previous experiments using 25 mL per 100 mL Erlenmeyer shake flasks.

Question: Which results are given for CCCCCC(=O)O [hexanoic acid]?
Answer: effect on growth: initial growth inhibitory effect; effect on maximum OTR: did not change the maximum OTR; time at which the oxygen transfer rate (OTR) peaked (77 h without supplementation): 92 h
